# Reference: patent US20090176817A1, “Method of Treatment of Diarrhea-Predominant Irritable Bowel Syndrome in a Subject” (priority 2005, published 2009)
# Tested on: diarrhea-predominant IBS subjects
# Experiment: Study S241.3.009: weekly diary questions on adequate relief
# Type: in vivo, human
# Details: 2 mg TID, ITT; for Number of months a subject was a responder during Months 1 to 3: IBS symptoms, One month / Number of months a subject was a responder during Months 1 to 3: IBS symptoms, Three months / Number of months a subject was a responder during Months 1 to 3: IBS symptoms, Two months / Number of months a subject was a responder during Months 1 to 3: IBS symptoms, Zero months / Number of months a subject was a responder during Months 1 to 3: Abdominal pain/discomfort, One month / Number of months a subject was a responder during Months 1 to 3: Abdominal pain/discomfort, Three months / Number of months a subject was a responder during Months 1 to 3: Abdominal pain/discomfort, Two months / Number of months a subject was a responder during Months 1 to 3: Abdominal pain/discomfort, Zero months / Number of months a subject was a responder during Months 1 to 3: Abnormal bowel habits, One month / Number of months a subject was a responder during Months 1 to 3: Abnormal bowel habits, Three months / Number of months a subject was a responder during Months 1 to 3: Abnormal bowel habits, Two months / Number of months a subject was a responder during Months 1 to 3: Abnormal bowel habits, Zero months / Responder rate, adequate relief of IBS symptoms / Responder rate, adequate relief of abdominal pain/discomfort / Responder rate, adequate relief of abnormal bowel habits: monthly LOCF imputation; for Number of subjects who were responders during the 26-week treatment period: Adequate relief of IBS symptoms / Number of subjects who were responders during the 26-week treatment period: Adequate relief of abdominal pain/discomfort / Number of subjects who were responders during the 26-week treatment period: Adequate relief of abnormal bowel habits: observed case
# Description: Study S241.3.009 was a Phase III, a double-blind, placebo-controlled, randomized, multinational study to investigate the safety and efficacy of 2 mg TID of cilansetron over 26 weeks in diarrhea-predominant IBS subjects. The study was conducted in 146 multinational study centers. A total of 1307 subjects consented to participate, and 806 subjects were randomized. A total of 792 subjects were analyzed for efficacy and 799 subjects were analyzed for safety. Diagnosis and main criteria for inclusion were IBS subjects satisfying the Rome I criteria (1992); the diarrhea-predominant sub-population of the Rome II criteria; and a minimum abdominal pain/discomfort, stool frequency and consistency determined during the run-in period. Subjects were treated with cilansetron 2 mg tablets given orally TID or matching placebo tablets given orally TID for 26 weeks.
# The primary efficacy parameter was the overall response rate for IBS symptoms, based on the weekly question concerning adequate relief of IBS symptoms (abdominal pain/discomfort, abnormal bowel habits) over the 26 weeks period. A responder was a subject who responded “yes” at least 50% of the time during his/her treatment period, with minimum treatment duration of four weeks. The two main secondary efficacy parameters were overall responder rate based on the weekly question on adequate relief of abdominal pain/discomfort and abnormal bowel habits during the 26-week treatment period. The onset of action of cilansetron was also examined using daily diary data (stool frequency, and ratings of urgency and severity) during the initial 8 weeks of trial participation. An additional key secondary efficacy parameter was the number of months (one month equals four weeks) up to six months (24-weeks) that a subject was a responder for IBS symptoms, where a responder was defined as a subject who answered the weekly question with “yes” at least twice for that month. The responder rate for the weekly diary questions on adequate relief at each month and all months, the adequate relief rate, the number of subjects with adequate relief by week, daily diary questions, IBS-QOL scores, and the interruption of activities were also assessed. Safety was evaluated by physical examination, ECG, vital signs, laboratory evaluations, concomitant medications, and AEs.
# Studies S24 1.3.OO6, S24 1.3.0 1 1, and S24 1.3.009 used the following efficacy measurements: • The subjects answered the following three questions with “yes” or “no” using a phone diary at the end of each week: • a) During the last week, did you experience adequate relief of your IBS symptoms, such as abdominal pain, abdominal discomfort, abnormal bowel habits? • b) During the last week, did you experience adequate relief of your abdominal pain and/or discomfort? • c) During the last week, did you experience adequate relief of your abnormal bowel habits? • The subjects rated the following symptoms using the phone diary at the end of each day: • abdominal pain/discomfort (five-point scale); • stool consistency (seven-point Bristol Stool Scale); • stool frequency (number of bowel movements each day); • urgency (five-point scale); • straining (yes or no); • feeling of incomplete defecation (yes or no); • bloating or feeling of abdominal distension (five-point scale). • In Studies S241 A006 and S241.3.009, subjects completed the IBS-QOL Survey at Baseline (Day 1) and at the end of treatment. In Study S24 1.3.0 1 1, subjects completed the IBS-QOL Survey at Baseline (Day 1), at the end of the three-month treatment period, and at the end of rerandomized treatment.
# In all three pivotal efficacy studies, the primary and main secondary efficacy parameters were based on the weekly diary questions on adequate relief and included the following: • 1. Number of months (one month equals four weeks) that a subject was a responder for the weekly diary questions on adequate relief. […]
# [1] = Duration of IBS: >24 months to ≦48 months
# [2] = Duration of IBS: >48 months to ≦120 months
structure (smiles),measurement,setting,value
"Cc1nccn1C[C@H]1CCc2c(c3cccc4c3n2CCC4)C1=O [Cilansetron, (R)-(−)-4,5,6,8,9,10-hexahydro-10-[(2-methyl-1H-imidazol-1-yl)methyl]-11H-pyrido-[3,2,1-jk]-carbazol-11-one]","Number of months a subject was a responder during Months 1 to 3: IBS symptoms, One month",[1],9 (9) n (%)
same,"Number of months a subject was a responder during Months 1 to 3: IBS symptoms, Three months",[1],35 (36) n (%)
same,"Number of months a subject was a responder during Months 1 to 3: IBS symptoms, Two months",[1],21 (22) n (%)
same,"Number of months a subject was a responder during Months 1 to 3: IBS symptoms, Zero months",[1],31 (32) n (%)
same,Number of subjects who were responders during the 26-week treatment period: Adequate relief of IBS symptoms,[1],56 (58) n (%)
same,Number of subjects who were responders during the 26-week treatment period: Adequate relief of abdominal pain/discomfort,[1],60 (63) n (%)
same,Number of subjects who were responders during the 26-week treatment period: Adequate relief of abnormal bowel habits,[1],63 (66) n (%)
same,"Number of months a subject was a responder during Months 1 to 3: Abdominal pain/discomfort, One month",[2],21 (16) n (%)
same,"Number of months a subject was a responder during Months 1 to 3: Abdominal pain/discomfort, Three months",[2],45 (34) n (%)
same,"Number of months a subject was a responder during Months 1 to 3: Abdominal pain/discomfort, Two months",[2],23 (18) n (%)
same,"Number of months a subject was a responder during Months 1 to 3: Abdominal pain/discomfort, Zero months",[2],42 (32) n (%)
same,"Number of months a subject was a responder during Months 1 to 3: Abnormal bowel habits, One month",[2],19 (15) n (%)
same,"Number of months a subject was a responder during Months 1 to 3: Abnormal bowel habits, Three months",[2],51 (39) n (%)
same,"Number of months a subject was a responder during Months 1 to 3: Abnormal bowel habits, Two months",[2],26 (20) n (%)
same,"Number of months a subject was a responder during Months 1 to 3: Abnormal bowel habits, Zero months",[2],35 (27) n (%)
same,"Number of months a subject was a responder during Months 1 to 3: IBS symptoms, One month",[2],16 (12) n (%)
same,"Number of months a subject was a responder during Months 1 to 3: IBS symptoms, Three months",[2],46 (35) n (%)
same,"Number of months a subject was a responder during Months 1 to 3: IBS symptoms, Two months",[2],28 (21) n (%)
same,"Number of months a subject was a responder during Months 1 to 3: IBS symptoms, Zero months",[2],41 (31) n (%)
same,Number of subjects who were responders during the 26-week treatment period: Adequate relief of IBS symptoms,[2],72 (55) n (%)
same,Number of subjects who were responders during the 26-week treatment period: Adequate relief of abdominal pain/discomfort,[2],68 (52) n (%)
same,Number of subjects who were responders during the 26-week treatment period: Adequate relief of abnormal bowel habits,[2],79 (60) n (%)
same,"Number of months a subject was a responder during Months 1 to 3: Abdominal pain/discomfort, One month",Duration of IBS: >120 months,15 (21) n (%)
same,"Number of months a subject was a responder during Months 1 to 3: Abdominal pain/discomfort, Three months",Duration of IBS: >120 months,22 (31) n (%)
same,"Number of months a subject was a responder during Months 1 to 3: Abdominal pain/discomfort, Two months",Duration of IBS: >120 months,15 (21) n (%)
same,"Number of months a subject was a responder during Months 1 to 3: Abdominal pain/discomfort, Zero months",Duration of IBS: >120 months,20 (28) n (%)
same,"Number of months a subject was a responder during Months 1 to 3: Abnormal bowel habits, One month",Duration of IBS: >120 months,10 (14) n (%)
same,"Number of months a subject was a responder during Months 1 to 3: Abnormal bowel habits, Three months",Duration of IBS: >120 months,27 (38) n (%)
same,"Number of months a subject was a responder during Months 1 to 3: Abnormal bowel habits, Two months",Duration of IBS: >120 months,14 (19) n (%)
same,"Number of months a subject was a responder during Months 1 to 3: Abnormal bowel habits, Zero months",Duration of IBS: >120 months,21 (29) n (%)
same,"Number of months a subject was a responder during Months 1 to 3: IBS symptoms, One month",Duration of IBS: >120 months,14 (19) n (%)
same,"Number of months a subject was a responder during Months 1 to 3: IBS symptoms, Three months",Duration of IBS: >120 months,23 (32) n (%)
same,"Number of months a subject was a responder during Months 1 to 3: IBS symptoms, Two months",Duration of IBS: >120 months,15 (21) n (%)
same,"Number of months a subject was a responder during Months 1 to 3: IBS symptoms, Zero months",Duration of IBS: >120 months,20 (28) n (%)
same,Number of subjects who were responders during the 26-week treatment period: Adequate relief of IBS symptoms,Duration of IBS: >120 months,40 (56) n (%)
same,Number of subjects who were responders during the 26-week treatment period: Adequate relief of abdominal pain/discomfort,Duration of IBS: >120 months,41 (57) n (%)
same,Number of subjects who were responders during the 26-week treatment period: Adequate relief of abnormal bowel habits,Duration of IBS: >120 months,42 (58) n (%)
same,"Number of months a subject was a responder during Months 1 to 3: Abdominal pain/discomfort, One month",Duration of IBS: ≦24 months,11 (11) n (%)
same,"Number of months a subject was a responder during Months 1 to 3: Abdominal pain/discomfort, Three months",Duration of IBS: ≦24 months,55 (57) n (%)
same,"Number of months a subject was a responder during Months 1 to 3: Abdominal pain/discomfort, Two months",Duration of IBS: ≦24 months,13 (14) n (%)
same,"Number of months a subject was a responder during Months 1 to 3: Abdominal pain/discomfort, Zero months",Duration of IBS: ≦24 months,17 (18) n (%)
same,"Number of months a subject was a responder during Months 1 to 3: Abnormal bowel habits, One month",Duration of IBS: ≦24 months,9 (9) n (%)
same,"Number of months a subject was a responder during Months 1 to 3: Abnormal bowel habits, Three months",Duration of IBS: ≦24 months,51 (53) n (%)
same,"Number of months a subject was a responder during Months 1 to 3: Abnormal bowel habits, Two months",Duration of IBS: ≦24 months,18 (19) n (%)
same,"Number of months a subject was a responder during Months 1 to 3: Abnormal bowel habits, Zero months",Duration of IBS: ≦24 months,18 (19) n (%)
same,"Number of months a subject was a responder during Months 1 to 3: IBS symptoms, One month",Duration of IBS: ≦24 months,16 (17) n (%)
same,"Number of months a subject was a responder during Months 1 to 3: IBS symptoms, Three months",Duration of IBS: ≦24 months,46 (48) n (%)
same,"Number of months a subject was a responder during Months 1 to 3: IBS symptoms, Two months",Duration of IBS: ≦24 months,16 (17) n (%)
same,"Number of months a subject was a responder during Months 1 to 3: IBS symptoms, Zero months",Duration of IBS: ≦24 months,18 (19) n (%)
same,Number of subjects who were responders during the 26-week treatment period: Adequate relief of IBS symptoms,Duration of IBS: ≦24 months,66 (69) n (%)
same,Number of subjects who were responders during the 26-week treatment period: Adequate relief of abdominal pain/discomfort,Duration of IBS: ≦24 months,70 (73) n (%)
same,Number of subjects who were responders during the 26-week treatment period: Adequate relief of abnormal bowel habits,Duration of IBS: ≦24 months,69 (72) n (%)
same,"Responder rate, adequate relief of IBS symptoms",Each month of Months 1 to 3,150 (38) n (%)
same,"Responder rate, adequate relief of abdominal pain/discomfort",Each month of Months 1 to 3,159 (40) n (%)
same,"Responder rate, adequate relief of abnormal bowel habits",Each month of Months 1 to 3,165 (42) n (%)
same,"Responder rate, adequate relief of IBS symptoms",Each month of Months 1 to 6,121 (31) n (%)
same,"Responder rate, adequate relief of abdominal pain/discomfort",Each month of Months 1 to 6,133 (34) n (%)
same,"Responder rate, adequate relief of abnormal bowel habits",Each month of Months 1 to 6,136 (34) n (%)
same,"Responder rate, adequate relief of IBS symptoms",Each month of Months 4 to 6,193 (49) n (%)
same,"Responder rate, adequate relief of abdominal pain/discomfort",Each month of Months 4 to 6,202 (51) n (%)
